For 4 compounds, MIC results are on record in ChEMBL document CHEMBL3739380, “Discovery of benzothiazoles as antimycobacterial agents: Synthesis, structure-activity relationships and binding studies with Mycobacterium tuberculosis decaprenylphosphoryl-β-D-ribose 2'-oxidase” (Bioorg Med Chem, 2015).

Values after ≈ are worked out from the molar mass of the structure shown.

Holding throughout (format): functional
Experiment [1] relates to Mycobacterium tuberculosis. The experiment can be described thus: Antimycobacterial activity against rifampicin-resistant Mycobacterium tuberculosis after 2 to 3 weeks by turbidity assay.
In experiment [2] the test system is Mycobacterium tuberculosis. Put plainly: Antimycobacterial activity against streptomycin-resistant Mycobacterium tuberculosis after 2 to 3 weeks by turbidity assay.
Experiment [3] deals with Mycobacterium tuberculosis. Put plainly: Antimycobacterial activity against INH-resistant Mycobacterium tuberculosis after 2 to 3 weeks by turbidity assay.

Consider `O=C(NCc1ccccn1)c1sc2c([N+](=O)[O-])cc(C(F)(F)F)cc2[n+]1[O-]`, for which the values for the minimal inhibitory concentration (MIC) in experiment [1], in experiment [2] and in experiment [3] were 0.03 µg/mL (≈ 0.0753 µM), 0.06 µg/mL (≈ 0.151 µM) and 0.06 µg/mL (≈ 0.151 µM), respectively.
Take `COCCN1CCN(C(=O)c2nc3cc(C(F)(F)F)c(C)c([N+](=O)[O-])c3s2)CC1`: the MIC in experiment [1], in experiment [2] and in experiment [3] was 1 µg/mL (≈ 2.31 µM) each time.
Turning to `Cc1c(C(F)(F)F)cc2nc(C(=O)N3CCCCC3)sc2c1[N+](=O)[O-]`, the minimal inhibitory concentration (MIC) (in general, the least concentration at which growth counts as inhibited) was found to be 0.5 µg/mL (≈ 1.34 µM) in experiment [1], 0.25 µg/mL (≈ 0.67 µM) in experiment [2] and 0.25 µg/mL (≈ 0.67 µM) in experiment [3].
For `O=C(NCc1ccccn1)c1nc2cc(C(F)(F)F)cc([N+](=O)[O-])c2s1`, the MIC was 0.25 µg/mL (≈ 0.654 µM) in experiment [1], 0.25 µg/mL (≈ 0.654 µM) in experiment [2] and 0.12 µg/mL (≈ 0.314 µM) in experiment [3].
